This note sets out measurements from PubChem BioAssay AID1769 (NMMLSC, 2009).

Each structure is given as a SMILES string.

This experiment concerns the target glutathione S-transferase (Schistosoma japonicum GST tag binding GSH beads). Briefly: GST–glutathione bead interaction interference profiling – biochemical, multiplex beads, flow cytometry, profiling panel (AID 1769).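 Note: target is a GST and green fluorescent protein fusion captured on glutathione beads.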 To be noted: flow cytometry fluorescence. (A flow cytometer gives signals particle by particle.)
For the compound `CCOC(=O)c1c2c3c(c(Cl)ccc3[nH]c1=O)C(=O)c1ccccc1-2`, the half-maximal effective concentration (EC50) is 0.4 µM. `CCN1/C(=C/c2ccc3cc(C)ccc3[n+]2C)Sc2ccc3sccc3c21`: the EC50 was 21 µM. To `O=C(N/N=C/c1ccco1)c1ccc(C(=O)N/N=C/c2ccco2)o1` belongs 19.4 µM; to `O=C(/C=C/c1ccc(N2CCC(c3ccccc3)=N2)cc1)c1ccccc1`, 0.34 µM. To `COc1cc2[nH]c(=S)nc(Nc3ccc(NC(C)=O)cc3)c2cc1OC` belongs 2.91 µM; to `O=c1nc2c(O)cccn2c2c1c(=O)[nH]c1ccccc12`, 2.6 µM. In the case of `COc1ccc(OC)c(Nc2nc(-c3sc(N)nc3C)cs2)c1`, the EC50 is 26.9 µM. Turning to `CC(C)(C)NC(=O)CCN(/N=C/c1ccc([N+](=O)[O-])o1)C1=NS(=O)(=O)c2ccccc21`, the EC50 is 3.39 µM. Then `O=[N+]([O-])c1ccc2c(c1)c(-c1ccccc1)nc1nncn12`, with 3.04 µM; and `O=c1c2ccccc2nc2ccc(NCc3ccco3)nn12`, with 50.8 µM; and `COc1cc(OC)c(-c2c3cc(O)c(=O)cc-3oc3cc(O)c(O)cc23)cc1OC`, with 0.258 µM. To `O=C(Cc1ccc(Nc2nc(=S)[nH]c3ccccc23)cc1)NC1CCCCC1` belongs 6.65 µM; to `O=C(CSc1ccc2nnc(-c3ccncc3)n2n1)Nc1nccs1`, 35.1 µM.

Take `COCCNC(=S)Nc1cc(OC)c(OC)cc1C#N`: the EC50 is 4.9 µM.

As for `COc1ccc(S(=O)(=O)N2CCCCC2)cc1NC(=O)c1ccc([N+](=O)[O-])o1`, the EC50 is 28.6 µM. Regarding `O=C1Nc2ccc(Br)cc2C12NNc1ccccc1O2` (configuration not stated), the EC50 was 2.38 µM. Then `CC(C)c1cc(NCc2ccccn2)n2c(nc3ccccc32)c1C#N`, with 2.82 µM; and `CCOc1cccc(Nc2cc3n(c(=O)n2)CCc2cc(OC)c(OC)cc2-3)c1`, with 64.5 µM. For `CC(C)(C)c1ccc(C(=O)CC(Sc2ccc(Cl)cc2)C(=O)O)cc1` (configuration not stated), the EC50 was 3.51 µM. To `COc1cc(/C=N/Nc2nc(C)nc3c2cnn3-c2ccccc2)ccc1O` belongs 0.638 µM; to `O=c1c2ccccc2nc2c3ccccc3c(NCc3cccnc3)nn12`, 0.348 µM. To `O=[N+]([O-])c1ccc(/C=C/C2=NN(c3ccccc3)C(c3ccco3)C2)cc1` (configuration not stated) belongs 1.34 µM; to `COc1cccc(N=Nc2c(N)[nH]n3c(=O)c4c(nc23)CCCC4)c1`, 1.22 µM. In the case of `COc1cc(/C=N/Nc2ncnc3sc4c(c23)CCC4)ccc1O`, the EC50 is 14.4 µM. Then `COc1cc2c(cc1OC)-c1cc(NCc3ccccn3)nc(=O)n1CC2`, with 1.96 µM; and `Oc1ccc2ccccc2c1/C=N/Nc1nnc(-c2ncc[nH]2)c2ccccc12`, with 1.96 µM. Then `CCC1CCCCN1S(=O)(=O)c1ccc(NC(=O)CSc2ncccc2C(=O)O)cc1` (configuration not stated), with 10.7 µM.

Turning to `Cc1ccc(NC(=O)Nc2ccnc(-c3cccnc3)n2)cc1`, the concentration for a half-maximal effect (EC50) was 2.07 µM. To `C=CCNc1nc(=S)[nH]c2cc(OC)c(OC)cc12` belongs 13.3 µM; to `CCOC(=O)c1cc(C(=O)OCC)c(=O)[nH]c1N1CCCC1`, 35.9 µM. Regarding `O=C1/C(=C/c2ccc(N3CCOCC3)o2)SC(=Nc2ccccc2)N1CCc1c[nH]c2ccccc12`, the EC50 was 0.0697 µM. Then `Cc1cc(/C=c2\sc3nc4ccccc4n3c2=O)c(C)n1-c1ccc(C(=O)O)cc1`, with 47.5 µM. For the compound `CN(/N=C/c1cccnc1)C1=NS(=O)(=O)c2ccccc21`, the EC50 is 5.05 µM. Then `COc1cc(NC(=O)c2cccs2)c(OC)cc1NC(=O)CCC(=O)Nc1ccc2ncccc2c1`, with 0.481 µM. As to `CCOC(=O)c1cc2c(N)c(C(=O)c3ccc(Br)cc3)sc2[nH]c1=O`, the EC50 was 0.574 µM. Then `COc1cc2[nH]c(=S)nc(NCCc3ccc(C)cc3)c2cc1OC`, with 0.334 µM.

For the compound `Cc1ccc(/C=N/N(C)C2=NS(=O)(=O)c3ccccc32)o1`, the EC50 is 7.42 µM. To `Cc1ccc(Nc2nc(-c3c(C)nc4ncccn34)cs2)cc1` belongs 34.8 µM. For the compound `CCCCNc1nc(=S)[nH]c2cc(OC)c(OC)cc12`, the EC50 was 10.9 µM.

With `Cc1sc2nc3c(SC(C)C(=O)O)cc(C(=O)c4ccccc4O)cn3c(=O)c2c1C` (configuration not stated), the EC50 is 92.7 µM. To `O=c1[nH]c(N/N=C/c2ccc(O)cc2)nc2ccccc12` belongs 7.68 µM.

On to `Cc1nc(N/N=C/c2ccc(O)cc2)c2cnn(-c3ccccc3)c2n1`, for which the half-maximal effective concentration (EC50) was 3.58 µM. With `COc1ccc(/C=N/NC(=O)Nc2cccc3nsnc23)cc1OC`, the half-maximal effective concentration (EC50) is 0.682 µM. To `N=c1oc2ccc3ccccc3c2cc1-c1nc(-c2ccccc2)cs1` belongs 1.4 µM. To `O=C(Oc1c(Br)cc(C(=S)N2CCOCC2)cc1Br)c1ccc(Cl)cc1` belongs 2.97 µM; to `COc1cccc2c(SCC(=O)N/N=C/c3ccc(O)cc3O)cc(C)nc12`, 45.4 µM. As to `COc1ccc(-c2c3c(nc4sc5c(=O)[nH]c(C)nc5c24)CCC3)cc1`, the EC50 was 3.74 µM. To `O=c1c2ccccc2nc2ccc(NCc3cccs3)nn12` belongs 6.79 µM; to `COc1cc(N2CCCC2)c(OC)cc1/C=C(/C#N)c1ccc(Br)cc1`, 0.0745 µM; to `O=S1(=O)N=C(N(CCO)/N=C/c2ccncc2)c2ccccc21`, 36.1 µM. To `NC1=NC(=O)/C(=C/c2cn(CCC(=O)O)nc2-c2ccc(Cl)cc2)S1` belongs 29.2 µM. Then `O=C(N/N=C/c1ccc2nccnc2c1)c1cccc([N+](=O)[O-])c1`, with 8.59 µM; and `CCN(c1ccc(N=Cc2c(O)n(Cc3ccc(OC)cc3)c(=O)c3ccccc23)cc1)C(C)C`, with 0.249 µM; and `Cc1cc(-c2nnc3n2N=C(c2ccc(-c4ccccc4)cc2)CS3)n[nH]1`, with 6.8 µM. On to `O=C(CSc1ccccc1)Nc1ccc(C(=O)Nc2cccc(O)c2)cc1`, for which the EC50 was 1.9 µM. For `O=[N+]([O-])c1cc(-c2ncccn2)c([N+](=O)[O-])s1`, the EC50 is 7.57 µM. Take `CN(/N=C/c1ccco1)C1=NS(=O)(=O)c2ccccc21`: the EC50 is 2.54 µM.

For `N#Cc1c(Nc2ccccc2)c(/C=N/N=C/c2ccccc2)c[nH]c1=O`, the EC50 was 4.1 µM.

As to `COc1ccccc1CNC(=O)c1c(N)n(CCCN2CCOCC2)c2nc3ccccc3nc12`, the half-maximal effective concentration (EC50) was 4.43 µM. To `O=C1/C(=C\c2ccc(-c3ccccc3Cl)o2)SC(=S)N1CC1CCCO1` (configuration not stated) belongs 17.3 µM.

For `COc1ccc(N/C=C/c2nc(SC)nnc2C)cc1`, the half-maximal effective concentration (EC50) was 2.76 µM. On to `O=C(O)c1cc(-c2ccc(/C=C3\NC(=O)N(c4ccc(Cl)cc4)C3=O)o2)ccc1Cl`, for which the half-maximal effective concentration (EC50) is 11.8 µM. To `O=c1c2ccc([N+](=O)[O-])cc2ncn1Cc1ccccc1C(F)(F)F` belongs 7.62 µM; to `CCN(CC)c1ccc(/C=C(\C#N)C(=O)c2ccc(Br)cc2)cc1`, 11.1 µM. `COc1ccc(/C=N/NC(=O)c2ccncc2)cc1Cn1nc([N+](=O)[O-])c(Br)c1C`: the EC50 is 9.22 µM. As for `CCOc1cc(/C=C2\SC(=O)N=C2N)ccc1O`, the EC50 was 2.47 µM. Then `COc1cc(/C=C2/SC(=Nc3ccc(O)cc3)NC2=O)cc(OC)c1O`, with 0.974 µM; and `COCCN1C(=O)/C(=C/c2ccc(N3CCCC3)cc2C)SC1=S`, with 1.69 µM. To `COc1cc(C(=S)NCc2ccccc2)cc(Br)c1O` belongs 53.7 µM.

Turning to `CN(C)S(=O)(=O)c1ccc(C(=O)NNc2nc(-c3ccccc3)c3cc(Br)ccc3n2)cc1`, the EC50 was 4.9 µM. To `NC(=O)c1cc2nc(-c3ccco3)cc(C(F)(F)F)n2n1` belongs 15.9 µM; to `O=C(NCc1cccnc1)c1cccn2c(=O)c3sccc3nc12`, 25.2 µM. To `O=c1[nH]c(=O)c2nnc(N/N=C\c3ccc(O)cc3)nc2[nH]1` belongs 3.79 µM.

Consider `COc1ccc(C(=O)Nc2nc3ccccc3[nH]2)cc1S(=O)(=O)N1CCOCC1`, for which the EC50 is 32.7 µM. To `COc1ccc(-c2csc(C3=C(O)CN(C(C)C)C3=N)n2)cc1OC` belongs 87.3 µM; to `CCOc1ccc(CCNc2ccc3nnc(-c4ccccc4)n3n2)cc1OCC`, 2.29 µM. `COc1ccc2o/c(=N/NC(=O)c3cccs3)c(C(N)=O)cc2c1`: the EC50 is 7.29 µM. Then `Oc1c(CN2CCOCC2)ccc2ccccc12`, with 24.5 µM; and `CN(/N=C/C=C/c1ccccc1)C1=NS(=O)(=O)c2ccccc21`, with 6.02 µM.

Regarding `COc1ccc(-c2cc(=O)c(C(=O)c3ccc(C)cc3)n[nH]2)cc1`, the EC50 was 4.09 µM. As to `COc1ccc(-c2cc(-c3ccc(O)cc3)nc(N)c2C#N)cc1OC`, the concentration giving a half-maximal response (EC50) was 11.5 µM.

As for `CCOc1ccccc1C(=O)Nc1cccc(-c2ccc3nncn3n2)c1`, the EC50 was 1.96 µM.

In general, EC50 refers to the midpoint of the concentration-response curve.
